Assay results: PubChem BioAssay (NCI)
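Where inhibition never reached the appropriate level, the endpoint shown equals the highest concentration tested. Otherwise, values were interpolated linearly from a five-concentration, 48-hour dose response in 96-well plates. At the GI50, growth is halved. TGI: total growth inhibition.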

Columns and labels:
Experiment in all cases: DTP human tumour cell line panel, 48 h
[1] = tested on: DU-145 prostate
[2] = tested on: HCC-2998 colon
[3] = tested on: 786-0 renal
[4] = tested on: NCI-H522 lung
[5] = tested on: RXF 393 renal
[6] = tested on: IGROV1 ovarian
[7] = tested on: HCT-15 colon
[8] = tested on: CAKI-1 renal
[9] = tested on: SNB-75 CNS
[10] = tested on: UO-31 renal
[11] = tested on: M14 melanoma
[12] = tested on: ACHN renal
[13] = tested on: NCI-H460 lung
[14] = tested on: PC-3 prostate
[15] = tested on: HL-60(TB) leukemia
[16] = tested on: SK-MEL-5 melanoma
[17] = tested on: NCI-H23 lung
[18] = tested on: SK-MEL-28 melanoma
[19] = tested on: A549 NSCLC
[20] = tested on: U251 CNS
[21] = tested on: HOP-62 NSCLC
[22] = tested on: OVCAR-8 ovarian
[23] = tested on: HOP-92 NSCLC
[24] = tested on: K-562 leukemia
[25] = tested on: TK-10 renal
[26] = tested on: SF-295 CNS
[27] = tested on: SR leukemia
[28] = tested on: MDA-MB-435
[29] = tested on: MALME-3M melanoma
[30] = tested on: OVCAR-4 ovarian
[31] = tested on: UACC-257 melanoma
[32] = tested on: SF-268 CNS
[33] = tested on: KM12 colon
[34] = tested on: NCI-H226 lung
[35] = tested on: RPMI-8226 leukemia
[36] = tested on: SW-620 colon
[37] = tested on: SF-539 CNS
[38] = tested on: SN12C renal
[39] = tested on: OVCAR-5 ovarian
[40] = tested on: A498 renal
[41] = tested on: MCF7 breast
[42] = tested on: CCRF-CEM leukemia
[43] = tested on: EKVX NSCLC
[44] = tested on: HCT-116 colon
[45] = tested on: UACC-62 melanoma
[46] = tested on: COLO 205 colon
[47] = tested on: OVCAR-3 ovarian
[48] = tested on: LOX IMVI melanoma
[49] = tested on: MDA-MB-231 breast
[50] = tested on: SNB-19 CNS
[51] = tested on: T-47D breast
[52] = tested on: SK-OV-3 ovarian
[53] = tested on: HS 578T breast
[54] = tested on: NCI/ADR-RES ovarian
[55] = tested on: HT29 colon
[56] = tested on: MOLT-4 leukemia

Question: Which GI50 [1] does the source give for `COc1cc(/C=C2\C(=O)Nc3ccccc32)cc(OC)c1O` here?
Answer: 5.35 µM

Question: What about the TGI [1] of the same molecule?
Answer: 46.4 µM

Question: And the GI50 [2]?
Answer: 11.9 µM

Question: And the TGI [2]?
Answer: 24.5 µM

Question: What about the GI50 [3] of the same molecule?
Answer: 7.07 µM

Question: And the TGI [3]?
Answer: 27.5 µM

Question: What about the GI50 [4] of the same molecule?
Answer: 1.72 µM

Question: What about the TGI [4] of the same molecule?
Answer: 5.1 µM

Question: And the GI50 [5]?
Answer: 2.52 µM

Question: And the TGI [5]?
Answer: 8.41 µM

Question: And the GI50 [6]?
Answer: 3.72 µM

Question: What about the TGI [6] of the same molecule?
Answer: 20.4 µM

Question: And the GI50 [7]?
Answer: 3.16 µM

Question: And the TGI [7]?
Answer: 15.1 µM

Question: What about the GI50 [8] of the same molecule?
Answer: 2.93 µM

Question: And the TGI [8]?
Answer: 25.3 µM

Question: And the GI50 [9]?
Answer: 1.17 µM

Question: And the TGI [9]?
Answer: 8.44 µM

Question: What about the GI50 [10] of the same molecule?
Answer: 2.63 µM

Question: What about the TGI [10] of the same molecule?
Answer: 19.9 µM

Question: What about the GI50 [11] of the same molecule?
Answer: 2.76 µM

Question: What about the TGI [11] of the same molecule?
Answer: 11 µM

Question: And the GI50 [12]?
Answer: 4.7 µM

Question: What about the TGI [12] of the same molecule?
Answer: 22.2 µM

Question: What about the GI50 [13] of the same molecule?
Answer: 3.12 µM

Question: What about the TGI [13] of the same molecule?
Answer: 11.7 µM

Question: What about the GI50 [14] of the same molecule?
Answer: 21 µM

Question: What about the TGI [14] of the same molecule?
Answer: > 100 µM

Question: What about the GI50 [15] of the same molecule?
Answer: 2.8 µM

Question: And the TGI [15]?
Answer: 11.1 µM

Question: What about the GI50 [16] of the same molecule?
Answer: 2.87 µM

Question: And the TGI [16]?
Answer: 10.8 µM

Question: And the GI50 [17]?
Answer: 4.97 µM

Question: And the TGI [17]?
Answer: 34.2 µM

Question: What about the GI50 [18] of the same molecule?
Answer: 5.06 µM

Question: What about the TGI [18] of the same molecule?
Answer: 23 µM

Question: And the GI50 [19]?
Answer: 4.91 µM

Question: And the TGI [19]?
Answer: 48.1 µM

Question: And the GI50 [20]?
Answer: 2.37 µM

Question: What about the TGI [20] of the same molecule?
Answer: 14 µM

Question: What about the GI50 [21] of the same molecule?
Answer: 4.24 µM

Question: And the TGI [21]?
Answer: 23.2 µM

Question: And the GI50 [22]?
Answer: 4.98 µM

Question: And the TGI [22]?
Answer: 29.7 µM

Question: What about the GI50 [23] of the same molecule?
Answer: 4.15 µM

Question: And the TGI [23]?
Answer: 49.2 µM

Question: What about the GI50 [24] of the same molecule?
Answer: 2.12 µM

Question: And the TGI [24]?
Answer: > 100 µM

Question: And the GI50 [25]?
Answer: 7.14 µM

Question: And the TGI [25]?
Answer: 37.1 µM

Question: And the GI50 [26]?
Answer: 2.99 µM

Question: And the TGI [26]?
Answer: 31.2 µM

Question: And the GI50 [27]?
Answer: 1.6 µM

Question: What about the TGI [27] of the same molecule?
Answer: 16.9 µM

Question: And the GI50 [28]?
Answer: 0.649 µM

Question: What about the TGI [28] of the same molecule?
Answer: 2.21 µM

Question: What about the GI50 [29] of the same molecule?
Answer: 2.98 µM

Question: What about the TGI [29] of the same molecule?
Answer: 21.8 µM

Question: And the GI50 [30]?
Answer: 4.95 µM

Question: And the TGI [30]?
Answer: 31.3 µM

Question: What about the GI50 [31] of the same molecule?
Answer: 1.81 µM

Question: And the TGI [31]?
Answer: 18.7 µM

Question: What about the GI50 [32] of the same molecule?
Answer: 4.24 µM

Question: And the TGI [32]?
Answer: 29.1 µM

Question: What about the GI50 [33] of the same molecule?
Answer: 2.53 µM

Question: What about the TGI [33] of the same molecule?
Answer: 11.5 µM

Question: And the GI50 [34]?
Answer: 17.7 µM

Question: What about the TGI [34] of the same molecule?
Answer: > 100 µM

Question: And the GI50 [35]?
Answer: 5.47 µM

Question: And the TGI [35]?
Answer: 27.5 µM

Question: What about the GI50 [36] of the same molecule?
Answer: 3.39 µM

Question: And the TGI [36]?
Answer: 13.1 µM

Question: What about the GI50 [37] of the same molecule?
Answer: 2.5 µM

Question: What about the TGI [37] of the same molecule?
Answer: 13.3 µM

Question: What about the GI50 [38] of the same molecule?
Answer: 3.61 µM

Question: And the TGI [38]?
Answer: 23.3 µM

Question: What about the GI50 [39] of the same molecule?
Answer: 4.71 µM

Question: What about the TGI [39] of the same molecule?
Answer: 18.8 µM

Question: And the GI50 [40]?
Answer: 2.08 µM

Question: What about the TGI [40] of the same molecule?
Answer: 15.8 µM

Question: And the GI50 [41]?
Answer: 0.728 µM

Question: What about the TGI [41] of the same molecule?
Answer: 15 µM

Question: And the GI50 [42]?
Answer: 5.16 µM

Question: And the TGI [42]?
Answer: > 100 µM

Question: What about the GI50 [43] of the same molecule?
Answer: 4.86 µM

Question: And the TGI [43]?
Answer: 48.2 µM

Question: And the GI50 [44]?
Answer: 3.29 µM

Question: And the TGI [44]?
Answer: 13.5 µM

Question: And the GI50 [45]?
Answer: 2.59 µM

Question: And the TGI [45]?
Answer: 11.1 µM

Question: And the GI50 [46]?
Answer: 12.3 µM

Question: What about the TGI [46] of the same molecule?
Answer: 26.8 µM

Question: What about the GI50 [47] of the same molecule?
Answer: 1.98 µM

Question: What about the TGI [47] of the same molecule?
Answer: 5.05 µM

Question: What about the GI50 [48] of the same molecule?
Answer: 3.99 µM

Question: And the TGI [48]?
Answer: 16.3 µM

Question: And the GI50 [49]?
Answer: 3.09 µM

Question: And the TGI [49]?
Answer: 20.8 µM

Question: What about the GI50 [50] of the same molecule?
Answer: 4.45 µM

Question: And the TGI [50]?
Answer: 55.6 µM

Question: And the GI50 [51]?
Answer: 3.56 µM

Question: And the TGI [51]?
Answer: 84.5 µM

Question: And the GI50 [52]?
Answer: 3.88 µM

Question: What about the TGI [52] of the same molecule?
Answer: 21.6 µM

Question: What about the GI50 [53] of the same molecule?
Answer: 1.77 µM

Question: And the TGI [53]?
Answer: 6.11 µM

Question: And the GI50 [54]?
Answer: 2.47 µM

Question: What about the TGI [54] of the same molecule?
Answer: 7.62 µM

Question: What about the GI50 [55] of the same molecule?
Answer: 9.07 µM

Question: What about the TGI [55] of the same molecule?
Answer: 31.1 µM

Question: What about the GI50 [56] of the same molecule?
Answer: 3.82 µM

Question: And the TGI [56]?
Answer: 92.3 µM
